# Data published in ChEMBL document CHEMBL1201862, “PubChem BioAssay data set” (2004).
# Activity calls are given as the source filed them.
# Tests used:
# [1] = molecular target: Botulinum neurotoxin type A (Clostridium botulinum (strain Hall / ATCC 3502 / NCTC 13319 / Type A), UniProt P0DPI1); test: High-throughput multiplex microsphere dose response for inhibitors of toxin protease, specifically Botulinum neurotoxin light chain A protease, compounds from Cherry Pick 01.; type: functional; conditions: read-out: EC50_MICROM
# [2] = molecular target: Protein disulfide-isomerase (Homo sapiens, UniProt P07237); test: inhibition of PDI-driven insulin aggregation – biochemical, turbidity, absorbance, cherry-picked samples, dose response (AID 602350); type: functional
# Sequence of Protein disulfide-isomerase (P07237 whole entry): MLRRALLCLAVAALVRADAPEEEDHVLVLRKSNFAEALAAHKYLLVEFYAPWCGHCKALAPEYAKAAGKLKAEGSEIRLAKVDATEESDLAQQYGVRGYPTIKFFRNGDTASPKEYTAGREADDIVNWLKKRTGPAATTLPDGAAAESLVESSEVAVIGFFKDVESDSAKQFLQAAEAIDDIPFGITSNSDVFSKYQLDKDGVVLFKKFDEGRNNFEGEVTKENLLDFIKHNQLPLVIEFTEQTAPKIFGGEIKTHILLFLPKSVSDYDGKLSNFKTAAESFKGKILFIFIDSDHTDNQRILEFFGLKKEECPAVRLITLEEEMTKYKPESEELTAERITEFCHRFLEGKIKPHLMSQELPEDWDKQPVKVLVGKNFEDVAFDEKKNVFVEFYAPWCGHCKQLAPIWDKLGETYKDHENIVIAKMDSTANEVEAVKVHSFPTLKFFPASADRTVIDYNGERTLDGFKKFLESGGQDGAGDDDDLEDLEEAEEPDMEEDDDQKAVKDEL
# Trypsin = Trypsin (Sus scrofa, UniProt P00761); test: trypsin protease activity blockade – biochemical, quenched peptide fluorescence, cherry-pick, selectivity assay for Rce1 protease inhibitor project, dose response (AID 488789)
# CAAX prenyl protease 2 [3] = molecular target: T1, CAAX prenyl protease 2 (Saccharomyces cerevisiae S288c, UniProt Q03530); type: biochemical
# T1 sequence (Q03530 whole entry): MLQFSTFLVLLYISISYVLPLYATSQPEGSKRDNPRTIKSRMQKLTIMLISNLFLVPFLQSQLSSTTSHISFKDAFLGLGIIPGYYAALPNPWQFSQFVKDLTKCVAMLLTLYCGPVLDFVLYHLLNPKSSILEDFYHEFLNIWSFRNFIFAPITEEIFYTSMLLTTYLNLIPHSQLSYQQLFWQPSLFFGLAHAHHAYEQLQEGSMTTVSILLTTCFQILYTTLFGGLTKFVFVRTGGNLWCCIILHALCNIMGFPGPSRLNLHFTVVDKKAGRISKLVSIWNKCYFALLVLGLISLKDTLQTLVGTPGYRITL
# CAAX prenyl protease 2 [4] = molecular target: T2, CAAX prenyl protease 2 (Homo sapiens, UniProt Q9Y256); test: inhibition of Ras-converting CAAX endoprotease – biochemical, plate reader, dry powder samples, dose response (AID 588848)
# T2 sequence (Q9Y256 whole entry): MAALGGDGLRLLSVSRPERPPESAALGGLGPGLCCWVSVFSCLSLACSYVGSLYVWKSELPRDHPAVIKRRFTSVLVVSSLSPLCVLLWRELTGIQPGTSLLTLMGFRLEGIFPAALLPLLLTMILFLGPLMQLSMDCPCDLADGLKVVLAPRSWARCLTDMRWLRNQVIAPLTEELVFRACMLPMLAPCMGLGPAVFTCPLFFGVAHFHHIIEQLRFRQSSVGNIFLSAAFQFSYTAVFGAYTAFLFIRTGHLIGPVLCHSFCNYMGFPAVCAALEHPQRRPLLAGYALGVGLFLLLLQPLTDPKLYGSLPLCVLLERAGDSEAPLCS
# CAAX prenyl protease 2 [5] = molecular target: T1, CAAX prenyl protease 2; test: inhibition of Rce1p peptide cleavage – biochemical, plate reader, dry powder retest, dose response (AID 588851)
# Cytochrome P450 1A2 = molecular target: T3, Cytochrome P450 1A2 (Homo sapiens, UniProt P05177);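 also: PubChem cytochrome P450 panel assay, CYP1A2 panel member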
# T3 sequence (P05177 whole entry): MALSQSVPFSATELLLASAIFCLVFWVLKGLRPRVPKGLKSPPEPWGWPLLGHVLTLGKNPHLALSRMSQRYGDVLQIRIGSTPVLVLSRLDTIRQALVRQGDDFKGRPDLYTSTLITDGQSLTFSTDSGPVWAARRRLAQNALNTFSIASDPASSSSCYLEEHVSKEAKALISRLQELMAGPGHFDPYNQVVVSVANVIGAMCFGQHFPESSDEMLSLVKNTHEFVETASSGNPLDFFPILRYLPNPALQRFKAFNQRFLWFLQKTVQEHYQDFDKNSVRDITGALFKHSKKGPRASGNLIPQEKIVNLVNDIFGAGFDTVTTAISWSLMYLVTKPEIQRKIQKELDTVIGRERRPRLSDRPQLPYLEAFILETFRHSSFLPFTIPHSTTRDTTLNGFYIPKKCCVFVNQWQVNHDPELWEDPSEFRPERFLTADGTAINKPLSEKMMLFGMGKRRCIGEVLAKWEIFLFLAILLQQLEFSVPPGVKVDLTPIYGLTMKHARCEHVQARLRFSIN
# [6] = molecular target: 5'-AMP-activated protein kinase catalytic subunit alpha-1 (Homo sapiens, UniProt Q13131); type: functional
# [7] = molecular target: Proto-oncogene tyrosine-protein kinase receptor Ret (Homo sapiens, UniProt P07949); type: functional;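 also: measured within a kinome-wide profiling panel, RET as the panel member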
# [8] = molecular target: Tyrosine-protein kinase receptor TYRO3 (Homo sapiens, UniProt Q06418); type: functional;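 also: TYRO3 value obtained as one member of a kinome-wide profiling panel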
# [9] = molecular target: Death-associated protein kinase 3 (Homo sapiens, UniProt O43293); type: functional;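 also: measured as one member of a kinome-wide profiling panel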
# Sequence of Death-associated protein kinase 3 (O43293 whole entry): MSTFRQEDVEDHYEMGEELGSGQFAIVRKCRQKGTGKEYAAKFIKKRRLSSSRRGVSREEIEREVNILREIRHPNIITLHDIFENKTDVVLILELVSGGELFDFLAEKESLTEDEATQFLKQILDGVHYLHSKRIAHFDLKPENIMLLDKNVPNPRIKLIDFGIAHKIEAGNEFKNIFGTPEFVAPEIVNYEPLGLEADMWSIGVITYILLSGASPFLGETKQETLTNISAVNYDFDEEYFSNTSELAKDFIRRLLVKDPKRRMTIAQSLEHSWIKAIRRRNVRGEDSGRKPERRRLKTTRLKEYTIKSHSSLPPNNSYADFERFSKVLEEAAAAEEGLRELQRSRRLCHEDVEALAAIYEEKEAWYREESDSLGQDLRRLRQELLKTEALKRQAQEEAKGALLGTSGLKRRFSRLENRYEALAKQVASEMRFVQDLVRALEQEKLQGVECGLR
# Activin receptor type-1 = molecular target: T4, Activin receptor type-1 (Homo sapiens, UniProt Q04771); test: Navigating the Kinome. Panel member name: ACVR1; type: functional
# T4 sequence (Q04771 whole entry): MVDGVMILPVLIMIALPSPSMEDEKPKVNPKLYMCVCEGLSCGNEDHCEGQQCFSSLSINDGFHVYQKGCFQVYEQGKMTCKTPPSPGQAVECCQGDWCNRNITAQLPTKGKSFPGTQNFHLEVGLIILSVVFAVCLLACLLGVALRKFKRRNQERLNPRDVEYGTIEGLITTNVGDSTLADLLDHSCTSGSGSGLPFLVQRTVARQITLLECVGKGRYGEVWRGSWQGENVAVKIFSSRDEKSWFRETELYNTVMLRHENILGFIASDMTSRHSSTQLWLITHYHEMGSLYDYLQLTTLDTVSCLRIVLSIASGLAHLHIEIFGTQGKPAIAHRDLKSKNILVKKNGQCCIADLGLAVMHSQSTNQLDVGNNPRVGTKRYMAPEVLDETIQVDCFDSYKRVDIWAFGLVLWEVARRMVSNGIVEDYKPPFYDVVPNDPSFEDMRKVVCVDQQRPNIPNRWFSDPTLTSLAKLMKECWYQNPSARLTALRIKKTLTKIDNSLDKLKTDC
# [10] = molecular target: Serine/threonine-protein kinase pim-1 (Homo sapiens, UniProt P11309); type: functional
# [11] = molecular target: Casein kinase I isoform alpha (Homo sapiens, UniProt P48729); type: functional
# LIM domain kinase 1 = LIM domain kinase 1 (Homo sapiens, UniProt P53667); test: Navigating the Kinome. Panel member name: LIMK1; type: functional
# Sequence of LIM domain kinase 1 (P53667 whole entry, the tested form may be a part): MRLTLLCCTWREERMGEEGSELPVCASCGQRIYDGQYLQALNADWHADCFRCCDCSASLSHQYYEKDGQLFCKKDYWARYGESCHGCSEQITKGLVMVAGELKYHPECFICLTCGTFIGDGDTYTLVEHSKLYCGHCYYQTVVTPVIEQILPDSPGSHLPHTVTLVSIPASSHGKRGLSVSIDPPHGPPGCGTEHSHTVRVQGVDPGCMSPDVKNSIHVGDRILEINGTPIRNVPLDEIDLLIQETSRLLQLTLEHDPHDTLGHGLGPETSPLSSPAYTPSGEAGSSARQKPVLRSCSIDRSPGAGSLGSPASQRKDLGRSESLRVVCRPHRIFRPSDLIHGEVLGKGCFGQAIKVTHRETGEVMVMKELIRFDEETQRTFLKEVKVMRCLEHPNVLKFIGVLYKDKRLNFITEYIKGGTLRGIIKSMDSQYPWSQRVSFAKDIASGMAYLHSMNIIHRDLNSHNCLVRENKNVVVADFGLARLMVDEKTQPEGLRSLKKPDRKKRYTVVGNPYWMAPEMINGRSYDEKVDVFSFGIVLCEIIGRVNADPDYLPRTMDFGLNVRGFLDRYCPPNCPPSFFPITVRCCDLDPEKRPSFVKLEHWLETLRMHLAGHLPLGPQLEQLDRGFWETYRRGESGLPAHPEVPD
# [12] = molecular target: Serine/threonine-protein kinase Chk1 (Homo sapiens, UniProt O14757); type: functional;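 also: measured as one member of a kinome-wide kinase profiling panel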
# Sequence of Serine/threonine-protein kinase Chk1 (O14757 whole entry): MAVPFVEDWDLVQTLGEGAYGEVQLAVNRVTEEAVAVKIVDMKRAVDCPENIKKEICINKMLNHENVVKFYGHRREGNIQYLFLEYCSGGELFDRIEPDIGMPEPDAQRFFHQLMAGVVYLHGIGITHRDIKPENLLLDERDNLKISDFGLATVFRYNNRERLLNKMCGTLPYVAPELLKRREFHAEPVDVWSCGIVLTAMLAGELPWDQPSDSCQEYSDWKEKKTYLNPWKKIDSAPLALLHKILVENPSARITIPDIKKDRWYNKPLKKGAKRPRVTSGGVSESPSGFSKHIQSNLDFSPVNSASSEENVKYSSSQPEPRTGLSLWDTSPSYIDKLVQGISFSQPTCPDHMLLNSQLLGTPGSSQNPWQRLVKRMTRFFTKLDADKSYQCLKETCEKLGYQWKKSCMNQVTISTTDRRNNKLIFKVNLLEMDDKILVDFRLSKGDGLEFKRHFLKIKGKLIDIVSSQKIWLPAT
# [13] = molecular target: Cyclin-dependent kinase 5 (Homo sapiens, UniProt Q00535); type: functional;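 also: CDK5 measured as one member of a kinase profiling panel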
# [14] = molecular target: Dual specificity tyrosine-phosphorylation-regulated kinase 1B (Homo sapiens, UniProt Q9Y463); test: Navigating the Kinome. Panel member name: DYRK1B; type: functional
# Sequence of Dual specificity tyrosine-phosphorylation-regulated kinase 1B (Q9Y463 whole entry): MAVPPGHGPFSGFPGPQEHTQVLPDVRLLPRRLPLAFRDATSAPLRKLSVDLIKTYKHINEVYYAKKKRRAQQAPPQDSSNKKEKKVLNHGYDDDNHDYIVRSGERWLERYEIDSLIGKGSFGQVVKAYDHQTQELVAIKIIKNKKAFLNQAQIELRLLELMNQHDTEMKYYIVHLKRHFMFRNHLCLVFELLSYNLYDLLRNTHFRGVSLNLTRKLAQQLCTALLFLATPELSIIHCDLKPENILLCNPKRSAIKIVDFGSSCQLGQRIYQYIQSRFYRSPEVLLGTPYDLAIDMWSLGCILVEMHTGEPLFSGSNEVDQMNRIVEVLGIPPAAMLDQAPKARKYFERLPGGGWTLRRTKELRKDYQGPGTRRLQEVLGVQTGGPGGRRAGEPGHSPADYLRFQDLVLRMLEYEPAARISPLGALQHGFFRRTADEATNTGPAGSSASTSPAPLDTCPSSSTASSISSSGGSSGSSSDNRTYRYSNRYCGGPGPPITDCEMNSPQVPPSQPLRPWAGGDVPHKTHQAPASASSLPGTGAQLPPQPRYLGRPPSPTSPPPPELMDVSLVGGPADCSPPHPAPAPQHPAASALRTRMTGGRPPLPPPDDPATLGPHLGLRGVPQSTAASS
# [15] = molecular target: cAMP-dependent protein kinase catalytic subunit PRKX (Homo sapiens, UniProt P51817); type: functional
# Focal adhesion kinase 1 = Focal adhesion kinase 1 (Homo sapiens, UniProt Q05397); type: functional;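 also: measured as one member of a kinome panel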
# Sequence of Focal adhesion kinase 1 (Q05397 whole entry): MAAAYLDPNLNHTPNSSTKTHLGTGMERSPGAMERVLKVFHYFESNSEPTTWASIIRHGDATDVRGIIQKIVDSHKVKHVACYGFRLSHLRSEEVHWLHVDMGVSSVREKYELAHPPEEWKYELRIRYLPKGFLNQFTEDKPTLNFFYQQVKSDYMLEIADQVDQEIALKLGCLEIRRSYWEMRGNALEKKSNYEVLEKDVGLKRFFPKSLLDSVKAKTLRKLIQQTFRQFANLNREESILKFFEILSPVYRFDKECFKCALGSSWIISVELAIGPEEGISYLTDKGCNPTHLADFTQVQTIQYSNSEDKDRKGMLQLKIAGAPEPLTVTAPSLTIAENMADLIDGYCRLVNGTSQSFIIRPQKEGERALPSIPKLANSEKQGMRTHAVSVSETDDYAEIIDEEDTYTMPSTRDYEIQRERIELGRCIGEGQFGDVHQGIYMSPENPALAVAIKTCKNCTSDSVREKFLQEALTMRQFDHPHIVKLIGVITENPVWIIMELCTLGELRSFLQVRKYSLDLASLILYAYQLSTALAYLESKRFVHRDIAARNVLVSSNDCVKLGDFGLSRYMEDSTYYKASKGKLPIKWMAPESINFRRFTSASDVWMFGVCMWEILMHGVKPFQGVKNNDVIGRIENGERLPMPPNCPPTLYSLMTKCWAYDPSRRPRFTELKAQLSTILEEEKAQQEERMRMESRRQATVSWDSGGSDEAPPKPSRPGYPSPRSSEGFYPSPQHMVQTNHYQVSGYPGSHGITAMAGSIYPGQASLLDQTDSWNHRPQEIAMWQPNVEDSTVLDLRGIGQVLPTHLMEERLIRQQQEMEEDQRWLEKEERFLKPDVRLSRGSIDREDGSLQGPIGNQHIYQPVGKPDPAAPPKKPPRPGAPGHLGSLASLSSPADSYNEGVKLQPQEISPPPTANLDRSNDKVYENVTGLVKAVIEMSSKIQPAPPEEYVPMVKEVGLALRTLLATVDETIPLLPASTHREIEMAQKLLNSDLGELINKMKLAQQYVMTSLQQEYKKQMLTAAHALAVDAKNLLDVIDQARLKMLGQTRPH
# [16] = molecular target: Leucine-rich repeat serine/threonine-protein kinase 2 (Homo sapiens, UniProt Q5S007); type: functional;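 also: value from a broad kinome-wide panel profiling study in which LRRK2 was one of the kinases tested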
# [17] = molecular target: Cyclin-dependent kinase 8 (Homo sapiens, UniProt P49336); test: Navigating the Kinome. Panel member name: CDK8; type: functional
# [18] = molecular target: Dual specificity protein kinase CLK4 (Homo sapiens, UniProt Q9HAZ1); type: functional
# [19] = molecular target: Dual specificity tyrosine-phosphorylation-regulated kinase 1A (Homo sapiens, UniProt Q13627); type: functional;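 also: measured against DYRK1A as one member of a broad kinome profiling panel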
# [20] = molecular target: Leukocyte tyrosine kinase receptor (Homo sapiens, UniProt P29376); test: Navigating the Kinome. Panel member name: LTK; type: functional
# Sequence of Leukocyte tyrosine kinase receptor (P29376 whole entry): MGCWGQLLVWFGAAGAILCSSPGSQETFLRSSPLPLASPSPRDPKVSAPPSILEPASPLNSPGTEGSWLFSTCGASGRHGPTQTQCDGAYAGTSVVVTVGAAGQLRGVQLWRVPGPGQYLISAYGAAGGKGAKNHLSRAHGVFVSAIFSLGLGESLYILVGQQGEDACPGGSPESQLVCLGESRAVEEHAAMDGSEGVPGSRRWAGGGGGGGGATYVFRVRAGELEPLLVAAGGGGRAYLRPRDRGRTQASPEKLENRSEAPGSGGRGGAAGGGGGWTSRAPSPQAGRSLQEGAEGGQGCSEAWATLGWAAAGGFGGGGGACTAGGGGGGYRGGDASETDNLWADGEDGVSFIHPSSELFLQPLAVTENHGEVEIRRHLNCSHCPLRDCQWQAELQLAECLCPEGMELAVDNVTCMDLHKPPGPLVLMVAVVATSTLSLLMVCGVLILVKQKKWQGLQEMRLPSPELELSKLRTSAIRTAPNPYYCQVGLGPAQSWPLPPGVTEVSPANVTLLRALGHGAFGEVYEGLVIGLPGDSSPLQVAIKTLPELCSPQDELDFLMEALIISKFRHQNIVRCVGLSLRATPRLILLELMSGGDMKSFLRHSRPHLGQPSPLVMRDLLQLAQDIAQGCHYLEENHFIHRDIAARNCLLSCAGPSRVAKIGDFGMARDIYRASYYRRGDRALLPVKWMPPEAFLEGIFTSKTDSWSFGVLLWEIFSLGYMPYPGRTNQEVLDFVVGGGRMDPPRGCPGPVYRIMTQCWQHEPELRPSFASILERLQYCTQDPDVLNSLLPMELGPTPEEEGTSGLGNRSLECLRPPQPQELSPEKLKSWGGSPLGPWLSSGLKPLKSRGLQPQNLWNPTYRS
# [21] = molecular target: DNA dC->dU-editing enzyme APOBEC-3G (Homo sapiens, UniProt Q9HC16); test: inhibition of APOBEC3G ssDNA deamination – biochemical, fluorescence, single-stranded DNA substrate, SAR follow-up (AID 602136); type: functional; conditions: read-out: IC50_Mean
# [22] = molecular target: DNA dC->dU-editing enzyme APOBEC-3A (Homo sapiens, UniProt P31941); test: SAR analysis of small molecule inhibitors of APOBEC3A DNA Deaminase via a fluorescence-based single-stranded DNA deaminase assay.; type: functional; conditions: read-out: IC50_Mean
# Sequence of DNA dC->dU-editing enzyme APOBEC-3A (P31941 whole entry): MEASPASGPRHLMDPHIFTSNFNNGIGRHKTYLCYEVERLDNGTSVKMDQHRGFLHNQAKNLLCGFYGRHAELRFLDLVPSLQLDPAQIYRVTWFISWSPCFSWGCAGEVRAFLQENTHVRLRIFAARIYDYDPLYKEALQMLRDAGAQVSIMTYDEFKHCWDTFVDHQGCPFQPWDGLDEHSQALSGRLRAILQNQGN
# Aminopeptidase N = molecular target: T5, Aminopeptidase N (Plasmodium falciparum FcB1/Columbia, UniProt O96935); test: malaria alanyl aminopeptidase activity blockers – biochemical, fluorogenic H-Leu-NHMec substrate, 1536-well (AID 1445); design: species or system Plasmodium falciparum 3D7, 3D7
# T5 sequence (O96935 whole entry): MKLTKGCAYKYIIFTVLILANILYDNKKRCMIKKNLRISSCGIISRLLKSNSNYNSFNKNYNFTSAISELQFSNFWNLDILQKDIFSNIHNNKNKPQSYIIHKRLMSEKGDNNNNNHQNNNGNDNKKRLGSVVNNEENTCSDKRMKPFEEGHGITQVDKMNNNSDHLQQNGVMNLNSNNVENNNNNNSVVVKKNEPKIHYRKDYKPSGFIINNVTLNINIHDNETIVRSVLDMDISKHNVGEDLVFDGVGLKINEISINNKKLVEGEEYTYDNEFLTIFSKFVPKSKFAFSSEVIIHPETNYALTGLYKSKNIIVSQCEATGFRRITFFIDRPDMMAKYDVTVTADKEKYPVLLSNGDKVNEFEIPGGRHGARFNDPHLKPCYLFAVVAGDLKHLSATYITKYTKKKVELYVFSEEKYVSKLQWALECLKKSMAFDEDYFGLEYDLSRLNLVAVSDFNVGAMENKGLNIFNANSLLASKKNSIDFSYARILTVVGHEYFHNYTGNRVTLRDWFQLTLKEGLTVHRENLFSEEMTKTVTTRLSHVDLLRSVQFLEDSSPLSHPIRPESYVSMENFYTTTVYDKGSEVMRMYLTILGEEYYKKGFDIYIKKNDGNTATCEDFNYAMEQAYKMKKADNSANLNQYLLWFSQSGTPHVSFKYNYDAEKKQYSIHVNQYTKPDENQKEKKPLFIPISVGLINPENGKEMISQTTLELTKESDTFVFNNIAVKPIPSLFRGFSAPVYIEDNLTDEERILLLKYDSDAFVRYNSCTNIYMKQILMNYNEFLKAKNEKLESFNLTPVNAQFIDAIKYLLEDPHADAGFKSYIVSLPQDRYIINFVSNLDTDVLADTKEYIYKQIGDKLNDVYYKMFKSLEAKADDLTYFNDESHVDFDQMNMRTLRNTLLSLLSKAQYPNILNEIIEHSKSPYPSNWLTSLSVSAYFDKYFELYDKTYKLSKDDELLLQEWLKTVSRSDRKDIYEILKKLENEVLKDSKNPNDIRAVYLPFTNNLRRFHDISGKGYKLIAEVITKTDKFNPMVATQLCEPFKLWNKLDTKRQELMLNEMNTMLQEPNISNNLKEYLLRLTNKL
# [23] = molecular target: 26S proteasome non-ATPase regulatory subunit 14 (Homo sapiens, UniProt O00487); test: inhibition of proteasome subunit RPN11 – biochemical, fluorescence polarization, uHTS hits, confirmation (AID 602368); type: functional
# [24] = molecular target: 72 kDa type IV collagenase (Homo sapiens, UniProt P08253); test: Dose Response validation of uHTS RPN11 inhibitor hits using a MMP-2 Fluorescence assay.; type: functional
# Prothrombin = Prothrombin (Bos taurus, UniProt P00735); test: thrombin protease inhibitors – biochemical, fluorescence polarization, uHTS hits, dose response (AID 602369); type: functional
# [25] = molecular target: T6, Rac GTPase-activating protein 1 (Homo sapiens, UniProt Q9H0H5); test: blockers of MgcRacGAP-driven Rac1 GTP hydrolysis – biochemical, ADP Hunter fluorescence, primary and confirmatory, confirmation (AID 624330); type: functional
# T6 sequence (Q9H0H5 whole entry): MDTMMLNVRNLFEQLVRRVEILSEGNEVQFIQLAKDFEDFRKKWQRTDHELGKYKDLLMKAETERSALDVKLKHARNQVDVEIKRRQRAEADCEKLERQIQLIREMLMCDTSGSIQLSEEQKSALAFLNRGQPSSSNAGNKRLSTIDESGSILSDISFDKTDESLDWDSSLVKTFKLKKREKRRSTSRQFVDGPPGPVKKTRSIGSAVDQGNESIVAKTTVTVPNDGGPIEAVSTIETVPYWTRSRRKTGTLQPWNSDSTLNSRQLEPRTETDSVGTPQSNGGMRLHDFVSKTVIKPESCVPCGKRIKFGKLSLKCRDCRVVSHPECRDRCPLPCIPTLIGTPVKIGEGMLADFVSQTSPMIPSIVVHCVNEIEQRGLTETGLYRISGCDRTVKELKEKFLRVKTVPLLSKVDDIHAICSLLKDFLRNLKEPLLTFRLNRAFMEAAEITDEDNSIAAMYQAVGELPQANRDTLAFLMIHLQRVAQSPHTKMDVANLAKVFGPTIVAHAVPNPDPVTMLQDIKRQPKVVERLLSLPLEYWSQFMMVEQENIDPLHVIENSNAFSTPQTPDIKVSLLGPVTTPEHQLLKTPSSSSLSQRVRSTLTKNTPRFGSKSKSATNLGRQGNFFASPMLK
# [26] = rescue of ΔF508 CFTR function, airway epithelium – human bronchial epithelial cells, plate reader, cherry-pick, two tests, dose response (AID 743267); type: functional, cell-based
structure (smiles),measurement,setting,value
COc1ccc(OC)c(-c2nc3cc4ccccc4cc3nc2-c2ccccc2)c1,EC50,[1],17.9 µM (active)
COc1ccc(C(=O)Nc2ccccc2C(=O)NCc2ccco2)cc1,AC50,[2],0.819 µM (active)
CCOc1cc(S(=O)(=O)N(Cc2ccccc2)Cc2ccccc2)c(OCC)cc1-n1cnnn1,AC50,Trypsin,34 µM (active)
same,AC50,CAAX prenyl protease 2 [3],1.45 µM (active)
same,AC50,CAAX prenyl protease 2 [4],35.6 µM (active)
same,AC50,CAAX prenyl protease 2 [5],16.8 µM (active)
same,AC50,Cytochrome P450 1A2,15.8 µM (inconclusive)
O=C1NS(=O)(=O)c2ccc(Cl)cc21,Ki,[6],50.1 µM (active)
same,Ki,[7],100 µM (active)
same,Ki,[8],20 µM (active)
same,Ki,[9],31.6 µM (active)
same,Ki,Activin receptor type-1,79.4 µM (active)
same,Ki,[10],79.4 µM (active)
same,Ki,[11],100 µM (active)
same,Ki,LIM domain kinase 1,25.1 µM (active)
same,Ki,[12],79.4 µM (active)
same,Ki,[13],50.1 µM (active)
same,Ki,[14],20 µM (active)
same,Ki,[15],63.1 µM (active)
same,Ki,Focal adhesion kinase 1,79.4 µM (active)
same,Ki,[16],50.1 µM (active)
same,Ki,[17],63.1 µM (active)
same,Ki,[18],63.1 µM (active)
same,Ki,[19],20 µM (active)
same,Ki,[20],31.6 µM (active)
Cc1cc(C(=O)N2CCCC(NS(C)(=O)=O)C2)c(C)n1Cc1ccccc1 (stereo not drawn),IC50,[21],> 99 µM (inactive)
same,IC50,[22],> 99 µM (inactive)
CCOc1cc(/C=C2\C(=N)N3N=C(S(=O)(=O)CC)SC3=NC2=O)ccc1O,IC50,Aminopeptidase N,55.7 µM (active)
same,IC50,[23],28.6 µM (active)
same,IC50,[24],> 100 µM (inactive)
same,IC50,Prothrombin,34.8 µM (active)
same,IC50,[25],79.6 µM (active)
same,AC50,[26],24.9 µM (active)
